The values below come from ChEMBL document CHEMBL1151305, “The biotransformation of some clovanes by botrytis cinerea” (J Nat Prod, 1998).

Each structure is given as a SMILES string. Active and inactive are the calls of the source. No cut-off for these calls is given here.

The experiment relates to Botrytis cinerea. Briefly: Antifungal activity against Botrytis cinerea assessed as inhibition of radical growth by poisoned-food technique. The experiment is classed as functional, organism-based.

Turning to `CO[C@H]1CC(C)(C)[C@@H]2CC[C@@]3(C)C[C@]12CC[C@H]3O`, the result was Active.
